Assays:
Format in all cases: physicochemical
[1] = Differential scanning calorimetry, resistance to temperature stress (solid-solid phase transition); settings: DSC, heating rate 10 K/min, 25 to 400 °C
Method: Bictegravir sodium Form II was investigated by DSC, which was performed on a Mettler Polymer DSC R instrument. The sample (3.77 mg) was heated in a 40 microliter aluminium pan with a pierced aluminium lid from 25 to 400 °C at a rate of 10 K/min. Nitrogen (purge rate 50 mL/min) was used as purge gas.

[2] = Initial dissolution behaviour (dissolution rate), about 100 mg suspended in 10 ml solvent, filtrate analysed by HPLC; settings: 24°C, stirring time 1 minute, approx. 100mg in 10ml
Method: The initial dissolution behavior of bictegravir sodium form II was compared with bictegravir sodium form I. Approximately 100mg Bictegravir-Na (Form I or Form II) were suspended at 24°C in 10ml solvent. Two different solvents were used for the study: 0,1M aqueous HCl solution and a phosphate buffer system (pH6,8; prepared according to "Küster Thiel - Rechentafeln dür die chemische Analytik").
After a stirring time of 1 minute a sample was taken and filtered throw a syringe filter. The received clear filtrate was analyzed by HPLC to determine the Bictegravir content. The HPLC-column was a YMC-Pack Pro C18 RS (150mm x 4.6mm) operated at 0.8 ml/min. Detection was at a wavelength of 254 nm. Mobile phases were sulfamic acid in water and acetonitrile, respectively, and were used as components of the gradient.

[3] = Storage stability (polymorphic stability determined by XRPD); settings: stored at 40°C/75% rh
Method: Thus bictegravir sodium form II is a storage stable (polymorphically stable as determined by XRPD for at least 1 month when stored at 40°C/75% rh) fast-dissolving crystalline form of bictegravir sodium with unexpected advantages over bictegravir sodium form I.

Row | temperature at which decomposition starts ([1]; Form I formed in situ from Form II) | amount dissolved after 1 minute ([2]; 0.1M HCl) [mg/mL] | amount dissolved after 1 minute ([2]; pH6.8 phosphate buffer system) [mg/mL] | onset temperature of exothermic peak (solid-solid phase transition from Form II to Form I) [1] | peak temperature of exothermic peak (solid-solid phase transition from Form II to Form I) [1] | polymorphically stable as determined by XRPD (storage time) [3] | Compound
1 | about 370 °C | 0.085 | 0.059 |  |  |  | O=C(NCc1c(F)cc(F)cc1F)c1cn2c(c(O)c1=O)C(=O)N1C3CCC(C3)OC1C2 (centres unmarked) [bictegravir sodium form I, bictegravir sodium]
2 |  | 0.220 | 0.186 | about 313 °C | about 320 °C | at least 1 month | O=C(NCc1c(F)cc(F)cc1F)c1cn2c(c(O)c1=O)C(=O)N1C3CCC(C3)OC1C2 (centres unmarked) [bictegravir sodium form II, bictegravir sodium]

— EP3749673B1, “CRYSTALLINE FORM OF BICTEGRAVIR SODIUM” (Sandoz AG, priority 2018, dated 2019)
